These results are taken from US20250352506A1, “MRGPRB2/X2, AGONIST AND ANTAGONIST AND METHODS THEREOF” (THE UNIVERSITY OF HONG KONG, priority 2024, published 2025).

Entries after “also recorded” stand apart in the source; their conditions may differ.

The target in experiment [1] is T1, Mrgprx2 (Homo sapiens, UniProt Q96LB1).
T1 construct: Tango fusion cassette; expressed in transfected cells; host or cells: HTLA cells
T1 sequence (Q96LB1 1-330): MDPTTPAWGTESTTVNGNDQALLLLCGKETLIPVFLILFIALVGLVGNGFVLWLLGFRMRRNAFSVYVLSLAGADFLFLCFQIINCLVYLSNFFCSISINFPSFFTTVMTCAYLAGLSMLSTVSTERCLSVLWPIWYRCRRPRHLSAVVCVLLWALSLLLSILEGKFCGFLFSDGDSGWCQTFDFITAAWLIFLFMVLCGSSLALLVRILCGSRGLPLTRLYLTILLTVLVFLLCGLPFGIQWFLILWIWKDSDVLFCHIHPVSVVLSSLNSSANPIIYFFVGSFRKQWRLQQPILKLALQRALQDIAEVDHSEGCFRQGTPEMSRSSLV
Description: PRESTO-Tango GPCR β-arrestin recruitment assay in Mrgprx2-transfected HTLA cells. It is filed as cell-based. On the procedure:
HTLA cells were maintained in DMEM supplemented with 10% FBS, 2 μg/mL puromycin and 100 μg/mL hygromycin B in a humidified atmosphere at 37° C. in 5% CO2. One million cells were seeded in 100 mm cell culture dish (Day 1). Cells were transfected with 4 μg Tango-MRGPRX2 construct using Lipofectamine 2000 reagent (Day 2). On day 3, cells were harvested and 20,000 cells per well were plated in 80 μL medium into poly-L-lysine coated and rinsed 96-well white cell culture plates (PerkinElmer). On day 4, GE1111 (final concentration […]) is added 1 hr prior to the agonists or antagonist in dose response manner (Compound 48/80, P17, P17*A4, P17*A7 and GE1111). On day 5, medium and drugs were removed from the wells slowly (aspiration) and […] luciferase substrate solution (500 mM DTT, 10 mM CoA, 100 mM ATP, 80 mg/mL luciferin and triton lysis buffer) were added to each well. After incubation for 10 min at room temperature, luminescence was counted in PerkinElmer Victor X4. RLU (relative luminescence units) results were exported into Excel sheets and GraphPad Prism 10 was used for analysis of data. To measure constitutive basal activity, no ligand was added on day 4.
For orientation: Activated receptors often draw arrestin, which recruitment assays turn into a signal.

The subject of experiment [2] is pERK 1/2 MAPK pathway and STIM1 in LAD2 mast cells. Kind of experiment: Western blot of LAD2 mast cells treated with Mrgprx2 ligands (pERK1/2, STIM1). It is filed as cell-based. As to conditions: GE1111 25 μM added 30 min prior to agonists. On the procedure:
LAD2 cells were treated with agonists (1 μM Compound 48/80, P17, P17*A4, P17*A7 and 25 μM GE1111) for 15 min. For antagonist study, GE1111 (25 μM) were added 30 min prior to adding the agonists ([…] Compound 48/80, P17, P17*A4 and P17*A7). Cells were harvested and RIPA buffer containing cocktail mix of phosphatase and protease inhibitors was used to extract protein. Upon Bradford assay, harvested proteins were denatured with Lamelli buffer at 95° C. for 5 min. Protein samples were loaded in SDS-PAGE and transferred to nitrocellulose membrane. Membranes were blocked with 5% BSA for 1 hr and incubated at 4° C. overnight with primary antibodies (1:1000) in BSA (p44/42 MAPK (Erk1/2) (137F5) Rabbit mAb #4695, cell signalling, USA; Phospho-p44/42 MAPK (Erk1/2) (Thr202/Tyr204) (D13.14.4E) XP® Rabbit mAb #4370, Cell Signalling, USA; GAPDH (14C10) Rabbit mAb #2118, Cell signalling, USA; STIM1 Antibody #4916, Cell Signalling, USA) followed by (1:2000) HRP linked anti-rabbit secondary antibody (Anti-rabbit IgG, HRP-linked Antibody #7074) in 1 hr at room temperature. ECL was added and blots were visualized with Bio Rad CHEMIDOC™ MP imaging system.
(In general: In western blotting, separated proteins are transferred to a membrane and probed.)

Experiment [3] has as its system 4% DSS-induced colitis in C57BL/6N mice. Kind of experiment: Survival study in 4% DSS-induced colitis. It is filed as in vivo, mouse. As to conditions: WT mice, i.p. every alternative day. From the text: (§1) C57BL/6N and Mrgprb2−/− adult mice (6-8 weeks old) were obtained from CMMR and housed in cages for acclimatation for a week. C57BL/6N and Mrgprb2−/− mice were divided into four groups (N=5-6) (2% DSS in drinking water and water control). Controls were fed with regular water and the treatment groups were exposed to 2% DSS for 5 days (Day 0 to Day 5) and regular water till Day 12. DSS-Colitis Grade (36,000-50,000 MW) (MP Biomedicals, Santa Ana, CA) was used in this study. During experiments, these mice were given anaesthesia to harvest blood and organs for other biochemical and histology analysis. For the survival study with Mrgprb2/x2 agonists, C57BL/6N mice were grouped into […] (N=10) and fed with 4% DSS for 5 days (Day 0 to 5) and replaced with regular drinking water for the rest of the experiment. Meanwhile, Mrgprb2/x2 ligands were given to the animals every alternative day via i.p. injection 100 μL with 10 μg/kg mice. For the treatment study with Mrgprb2/x2 ligands, C57BL/6N mice were divided into 7 groups (N=8 per group). Six groups were receiving 2.5% DSS dissolved in drinking water for 5 days (Day 0 to Day 5) and regular water till Day 12 and the control group was receiving water from Day 0 to Day 12. These 6 groups exposed to 2.5% DSS were treated with Mrgprb2/x2 ligands or saline for every alternative day till Day 12. […]

Experiment [4] relates to 2.5% DSS-induced colitis in C57BL/6N mice. Description: Treatment study in 2.5% DSS-induced colitis, clinical parameters (DAI, colon, H&E). It is filed as in vivo, mouse. As to conditions: WT mice, 2.5% DSS Day 0 to 5, ligands every alternative day to Day 12; P17 and analogues 150 μg/kg, CST-14 15 μg/kg, GE1111 300 μg/kg.
Text: as §1, with “mice.” for “mice. For the treatment study with Mrgprb2/x2 ligands, C57BL/6N mice were divided into 7 groups (N=8 per group). Six groups were receiving 2.5% DSS dissolved in drinking water for 5 days (Day 0 to Day 5) and regular water till Day 12 and the control group was receiving water from Day 0 to Day 12. These 6 groups exposed to 2.5% DSS were treated with Mrgprb2/x2 ligands or saline for every alternative day till Day 12.”
All animals were examined daily and the disease activity index (DAI) score was assessed as previously described by assessing stool consistency, presence of blood in stool and body weight change as summarised in Table 1. Percentage of body weight was calculated relative to the initial body weight at Day 0 [(Weight on a Day−Initial weight at Day 0/Initial weight at Day 0)×100].

For experiment [5], the system named is Mrgpra1 and Mrgprb2 expression in colon. Description: qRT-PCR of mouse orthologs of Mrgprx2 in colon. It is filed as in vivo. As to conditions: WT mice, 2.5% DSS-induced colitis. The method, then:
To assess the gene expression profile in colon, distal colons were used to isolate total RNA using Trizol. Total RNA was precipitated for 30 min in […] with isopropanol and glycogen. The precipitated RNA was then washed with 75% ethanol and resuspended in RNase-free water for first strand cDNA synthesis following the protocol from HiScript® II Q RT SuperMix (Vazyme biotech co., ltd, China). cDNA harvested were quantified by quantitative PCR (7300 Real-Time PCR System, Applied Biosystems, Forster City, CA). The expression of genes was examined using ChamQ™ SYBR Color qPCR Master Mix as specified by the manufacturer protocol. All primer sequences are shown in Supplementary Table S1. […] method was employed for data analysis with the internal control, glyceraldehyde-3-phosphate dehydrogenase (gapdh).
A general note: Real-time PCR tracks product formation cycle by cycle.

The test system of experiment [6] is cytokine and chemokine releases in the blood. Kind of experiment: Cytokine array analysis of blood plasma. Format: in vivo, mouse. As to conditions: mice exposed to 2.5% DSS, 40-target array. The method, then: The cytokine membranes were blocked with blocking buffer in room temperature for 1 hr. The blocking buffer was removed from the membranes and […] of plasma obtained from the treatment groups (WT+Water, WT+2% DSS, Mrgprb2−/−+Water and Mrgprb2−/−+2% DSS; Water+Saline, 2.5% DSS+Saline, 2.5% DSS+P17*A7 and 2.5% DSS+GE1111) diluted in blocking buffer (total volume 1 mL) were subjected to membrane containing array of antibodies anti-cytokines. The membranes were first incubated at 4 °C for 24 hr in the blocking buffer, following five washes with washing buffers (I and II) and then incubated with 1× biotin-conjugated anti-cytokines overnight at 4 °C. Membranes were washed again with washing buffers (I and II) 5 five times and incubated with 1×HRP-conjugated streptavidin for 2 hr at room temperature. Membranes were washed again, and 1 mL of detection buffer C and D were mixed and added to each membrane in dark for 2 min before imaging. Finally, array images were measured with ChemiDoc MP (Bio-Rad Laboratories, Hercules, CA). The detailed protocol can be referred to the instructions of a Cytokine Antibody Array Kit (ab133999—40 targets, Abcam).

Experiment [7] relates to M-CSF, BLC, G-CSF and sTNF RI in blood plasma. Kind of experiment: ELISA of cytokines in blood plasma. It is filed as in vivo, mouse. As to conditions: mice exposed to 2.5% DSS. On the procedure:
Concentrations of cytokines in blood plasma of the treatment groups (WT+Water, WT+2% DSS, Mrgprb2−/−+Water, Mrgprb2−/−+2% DSS, Water+Saline, 2.5% DSS+Saline, 2.5% DSS+P17, 2.5% DSS+P17*A4, 2.5% DSS+P17*A7, 2.5% DSS+CST-14 and 2.5% DSS+GE1111) were determined using ELISA kits (M-CSF-ab199084, Abcam; LIX—ab264611, Abcam; sTNF RI—ab202408, Abcam; G-CSF—ab197743, Abcam; BLC-EMCXCL13, Thermofisher) according to the manufacturer's protocol. Optical densities of the samples and standards were measured using PerkinElmer Victor X4. Cytokine concentrations were determined by comparing the optical density from the standard curve of each cytokine standards.

Experiment [8] relates to DSS-induced colitis in mice models. As to conditions: recent studies [41]-[44]; cited from earlier work.

Turning to `COC(=O)c1cc2cc(NC(N)=O)ccc2cc1-c1cc2c3c(c(O)ccc3c1)C(C)C(C=O)=C2` (stereo not shown) [GE1111], the “effect on agonist-induced β-arrestin recruitment” value in experiment [1] (GE1111 (final concentration 10 PM) added 1 hr prior to the agonists) is listed as “antagonized the agonist activity”. Further, the “GE1111 dose response on Mrgprx2 (no agonist)” value in experiment [1] (Mrgprx2-transfected HTLA cells, GE1111 alone) is listed as “behaved as an inverse agonist”. In addition, the “effect on agonist-induced pERK1/2 / STIM1 pathway” value in experiment [2] is reported as “antagonized this pathway”. Further, the survival of mice result in experiment [3] is reported as “increased the survival rate; also recorded: mimicked the effect of the agonist on mice survival”. In experiment [4], the “severity of DSS-induced colitis” value is given as “reduced the severity of DSS-induced colitis”. Further, the “expression of Mrgpra1 and Mrgprb2 in colon” value in experiment [5] was “restored their expression to the levels of healthy mice”. For the same molecule, in experiment [6], the “cytokine and chemokine levels in the blood plasma (array)” value is “significant modifications in most of the cytokine and chemokine levels”. In addition, the “M-CSF, BLC and G-CSF levels in blood plasma” value in experiment [7] is reported as “significant reduction in these cytokine levels”.

For the molecule `O=c1c(O)c(-c2ccc(O)c(O)c2)oc2cc(O)cc(O)c12` [quercetin], the DSS-induced colitis symptoms entry in experiment [8] is recorded as “ameliorate DSS-induced colitis symptoms”.

With “cortistatin 14 [CST-14, reference compound]”, the survival of mice result in experiment [3] is recorded as “increased the survival rate”. Further, in experiment [4], the “severity of DSS-induced colitis” value was “reduced the severity of DSS-induced colitis”. In addition, the DSS-induced colitis symptoms entry in experiment [8] was “ameliorate DSS-induced colitis symptoms”.

With protegrin, the DSS-induced colitis symptoms result in experiment [8] was “ameliorate DSS-induced colitis symptoms”.
